What was measured:
[1] = biological target: Cyclin-dependent kinase 14 (Homo sapiens) (UniProt O94921); conditions: Compound concentration 1000.0 nM
[2] = biological target: SRSF protein kinase 2 (Homo sapiens) (UniProt P78362); conditions: Compound concentration 1000.0 nM
[3] = biological target: Protein kinase C theta type (Homo sapiens) (UniProt Q04759); conditions: Compound concentration 1000.0 nM
[4] = biological target: Mitogen-activated protein kinase kinase kinase 5 (Homo sapiens) (UniProt Q99683); conditions: Compound concentration 1000.0 nM
[5] = biological target: Tyrosine-protein kinase JAK1 (Homo sapiens) (UniProt P23458); conditions: Compound concentration 1000.0 nM
[6] = biological target: Non-receptor tyrosine-protein kinase TYK2 (Homo sapiens) (UniProt P29597); conditions: Compound concentration 1000.0 nM
[7] = biological target: Phosphatidylinositol 4-phosphate 5-kinase type-1 alpha (Homo sapiens) (UniProt Q99755); conditions: Compound concentration 1000.0 nM
[8] = biological target: Activin receptor type-1 (Homo sapiens) (UniProt Q04771); conditions: Compound concentration 1000.0 nM
Sequence of Activin receptor type-1 (Homo sapiens) (Q04771 whole entry): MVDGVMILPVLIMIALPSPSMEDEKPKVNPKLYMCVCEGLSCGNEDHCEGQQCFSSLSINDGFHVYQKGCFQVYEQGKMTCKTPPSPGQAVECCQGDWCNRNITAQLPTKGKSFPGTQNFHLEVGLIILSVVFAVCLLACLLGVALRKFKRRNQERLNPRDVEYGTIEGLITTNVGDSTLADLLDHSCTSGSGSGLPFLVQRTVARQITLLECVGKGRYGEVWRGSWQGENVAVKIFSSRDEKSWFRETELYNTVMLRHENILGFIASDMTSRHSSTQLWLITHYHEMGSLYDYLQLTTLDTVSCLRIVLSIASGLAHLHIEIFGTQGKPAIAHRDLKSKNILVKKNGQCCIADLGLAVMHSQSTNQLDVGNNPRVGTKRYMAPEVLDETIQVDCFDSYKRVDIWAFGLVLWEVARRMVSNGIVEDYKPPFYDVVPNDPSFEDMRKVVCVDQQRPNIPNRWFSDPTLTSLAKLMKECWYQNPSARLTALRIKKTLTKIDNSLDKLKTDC

[9] = biological target: Serine/threonine-protein kinase TAO3 (Homo sapiens) (UniProt Q9H2K8); conditions: Compound concentration 1000.0 nM
[10] = biological target: Bone morphogenetic protein receptor type-1B (Homo sapiens) (UniProt O00238); conditions: Compound concentration 1000.0 nM
[11] = biological target: Receptor-interacting serine/threonine-protein kinase 4 (Homo sapiens) (UniProt P57078); conditions: Compound concentration 1000.0 nM
[12] = biological target: Homeodomain-interacting protein kinase 3 (Homo sapiens) (UniProt Q9H422); conditions: Compound concentration 1000.0 nM
[13] = biological target: Tyrosine-protein kinase FRK (Homo sapiens) (UniProt P42685); conditions: Compound concentration 1000.0 nM
[14] = biological target: 5'-AMP-activated protein kinase catalytic subunit alpha-1 (Homo sapiens) (UniProt Q13131); conditions: Compound concentration 1000.0 nM
[15] = biological target: Serine/threonine-protein kinase 4 (Homo sapiens) (UniProt Q13043); conditions: Compound concentration 1000.0 nM
[16] = biological target: Tyrosine-protein kinase Mer (Homo sapiens) (UniProt Q12866); conditions: Compound concentration 1000.0 nM
[17] = biological target: Serine/threonine-protein kinase LATS2 (Homo sapiens) (UniProt Q9NRM7); conditions: Compound concentration 1000.0 nM
[18] = biological target: Dual specificity protein kinase CLK4 (Homo sapiens) (UniProt Q9HAZ1); conditions: Compound concentration 1000.0 nM
[19] = biological target: NUAK family SNF1-like kinase 1 (Homo sapiens) (UniProt O60285); conditions: Compound concentration 1000.0 nM
Sequence of NUAK family SNF1-like kinase 1 (Homo sapiens) (O60285 whole entry): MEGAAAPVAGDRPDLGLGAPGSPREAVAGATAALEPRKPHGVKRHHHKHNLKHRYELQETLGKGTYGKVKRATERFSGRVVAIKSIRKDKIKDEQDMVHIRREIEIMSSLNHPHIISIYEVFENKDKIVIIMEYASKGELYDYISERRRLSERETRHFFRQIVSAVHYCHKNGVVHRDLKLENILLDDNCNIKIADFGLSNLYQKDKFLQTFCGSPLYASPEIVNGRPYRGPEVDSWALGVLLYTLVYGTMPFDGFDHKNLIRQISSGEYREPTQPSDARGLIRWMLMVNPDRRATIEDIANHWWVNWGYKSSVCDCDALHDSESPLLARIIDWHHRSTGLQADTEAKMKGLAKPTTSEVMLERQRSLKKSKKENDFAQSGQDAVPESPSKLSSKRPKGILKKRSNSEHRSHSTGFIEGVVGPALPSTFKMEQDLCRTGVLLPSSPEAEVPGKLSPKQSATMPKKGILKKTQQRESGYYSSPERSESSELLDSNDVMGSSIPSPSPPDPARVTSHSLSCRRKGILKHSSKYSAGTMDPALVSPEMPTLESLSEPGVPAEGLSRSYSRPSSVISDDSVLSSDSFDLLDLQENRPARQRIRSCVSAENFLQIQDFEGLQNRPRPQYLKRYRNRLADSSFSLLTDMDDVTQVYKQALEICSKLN

[20] = biological target: Serine/threonine-protein kinase 10 (Homo sapiens) (UniProt O94804); conditions: Compound concentration 1000.0 nM
[21] = biological target: Serine/threonine-protein kinase 17A (Homo sapiens) (UniProt Q9UEE5); conditions: Compound concentration 1000.0 nM
[22] = biological target: Mitogen-activated protein kinase kinase kinase kinase 1 (Homo sapiens) (UniProt Q92918); conditions: Compound concentration 1000.0 nM
[23] = biological target: Serine/threonine-protein kinase DCLK3 (Homo sapiens) (UniProt Q9C098); conditions: Compound concentration 1000.0 nM
[24] = biological target: Interferon-induced, double-stranded RNA-activated protein kinase (Homo sapiens) (UniProt P19525); conditions: Compound concentration 1000.0 nM
[25] = test system: Mast/stem cell growth factor receptor Kit (Homo sapiens), P10721 [V559D]; conditions: Compound concentration 1000.0 nM
[26] = biological target: G protein-coupled receptor kinase 4 (Homo sapiens) (UniProt P32298); conditions: Compound concentration 1000.0 nM
[27] = biological target: Macrophage colony-stimulating factor 1 receptor (Homo sapiens) (UniProt P07333); conditions: Compound concentration 1000.0 nM
[28] = biological target: D(1A) dopamine receptor (Homo sapiens) (UniProt P21728); conditions: Compound concentration 10.0 uM
Sequence of D(1A) dopamine receptor (Homo sapiens) (P21728 whole entry): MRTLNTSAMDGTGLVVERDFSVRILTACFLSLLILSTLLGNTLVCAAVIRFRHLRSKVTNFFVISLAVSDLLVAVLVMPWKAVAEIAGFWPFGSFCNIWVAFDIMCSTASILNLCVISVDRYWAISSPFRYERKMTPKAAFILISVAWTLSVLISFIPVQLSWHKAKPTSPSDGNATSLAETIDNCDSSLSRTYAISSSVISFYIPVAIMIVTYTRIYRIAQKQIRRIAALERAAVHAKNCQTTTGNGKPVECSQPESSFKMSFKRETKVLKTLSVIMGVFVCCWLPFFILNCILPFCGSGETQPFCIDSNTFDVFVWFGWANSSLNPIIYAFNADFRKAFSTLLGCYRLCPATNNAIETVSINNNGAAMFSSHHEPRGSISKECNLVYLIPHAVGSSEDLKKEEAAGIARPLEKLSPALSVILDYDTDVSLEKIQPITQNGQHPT

[29] = biological target: Serine/threonine-protein kinase 25 (Homo sapiens) (UniProt O00506); conditions: Compound concentration 1000.0 nM
[30] = biological target: Serine/threonine-protein kinase 36 (Homo sapiens) (UniProt Q9NRP7); conditions: Compound concentration 1000.0 nM
[31] = biological target: Tyrosine-protein kinase Lyn (Homo sapiens) (UniProt P07948); conditions: Compound concentration 1000.0 nM
[32] = biological target: SRSF protein kinase 1 (Homo sapiens) (UniProt Q96SB4); conditions: Compound concentration 1000.0 nM
[33] = biological target: Activin receptor type-1-like (Homo sapiens) (UniProt P37023); conditions: Compound concentration 1000.0 nM
Sequence of Activin receptor type-1-like (Homo sapiens) (P37023 whole entry): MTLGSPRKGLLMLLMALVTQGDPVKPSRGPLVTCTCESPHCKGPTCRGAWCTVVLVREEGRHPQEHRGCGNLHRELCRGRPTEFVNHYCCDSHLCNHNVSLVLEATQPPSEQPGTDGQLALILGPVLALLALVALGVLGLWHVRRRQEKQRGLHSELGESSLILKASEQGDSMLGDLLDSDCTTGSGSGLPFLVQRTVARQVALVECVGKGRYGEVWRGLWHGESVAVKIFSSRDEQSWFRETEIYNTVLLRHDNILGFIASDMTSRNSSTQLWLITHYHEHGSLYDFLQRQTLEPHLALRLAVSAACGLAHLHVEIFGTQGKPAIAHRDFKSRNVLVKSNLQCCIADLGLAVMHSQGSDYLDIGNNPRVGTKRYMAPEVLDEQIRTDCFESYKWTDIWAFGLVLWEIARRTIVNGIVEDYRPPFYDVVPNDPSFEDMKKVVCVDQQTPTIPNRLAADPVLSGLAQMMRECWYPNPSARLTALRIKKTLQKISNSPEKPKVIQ

[34] = biological target: Aurora kinase C (Homo sapiens) (UniProt Q9UQB9); conditions: Compound concentration 1000.0 nM
[35] = biological target: Mitogen-activated protein kinase 3 (Homo sapiens) (UniProt P27361); conditions: Compound concentration 1000.0 nM
[36] = biological target: RAC-beta serine/threonine-protein kinase (Homo sapiens) (UniProt P31751); conditions: Compound concentration 1000.0 nM
[37] = biological target: Ephrin type-A receptor 2 (Homo sapiens) (UniProt P29317); conditions: Compound concentration 1000.0 nM
[38] = test system: Tyrosine-protein kinase ABL1 (Homo sapiens), P00519 [Y253F]; conditions: Compound concentration 1000.0 nM
[39] = biological target: Calcium/calmodulin-dependent protein kinase type 1D (Homo sapiens) (UniProt Q8IU85); conditions: Compound concentration 1000.0 nM
Sequence of Calcium/calmodulin-dependent protein kinase type 1D (Homo sapiens) (Q8IU85 whole entry, looked up): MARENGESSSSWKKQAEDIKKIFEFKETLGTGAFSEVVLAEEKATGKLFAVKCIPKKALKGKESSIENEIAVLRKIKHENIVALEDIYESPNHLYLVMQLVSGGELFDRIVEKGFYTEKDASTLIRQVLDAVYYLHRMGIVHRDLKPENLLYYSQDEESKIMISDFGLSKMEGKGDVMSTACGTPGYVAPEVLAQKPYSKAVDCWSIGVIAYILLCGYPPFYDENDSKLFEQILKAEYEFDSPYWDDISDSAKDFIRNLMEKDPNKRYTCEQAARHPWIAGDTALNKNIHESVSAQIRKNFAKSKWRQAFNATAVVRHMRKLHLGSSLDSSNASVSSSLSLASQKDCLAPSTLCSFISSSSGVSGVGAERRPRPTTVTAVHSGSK

[40] = biological target: Serine/threonine-protein kinase ICK (Homo sapiens) (UniProt Q9UPZ9); conditions: Compound concentration 1000.0 nM
[41] = biological target: Cyclin-dependent kinase 13 (Homo sapiens) (UniProt Q14004); conditions: Compound concentration 1000.0 nM
[42] = biological target: Misshapen-like kinase 1 (Homo sapiens) (UniProt Q8N4C8); conditions: Compound concentration 1000.0 nM
[43] = test system: Phosphatidylinositol 4,5-bisphosphate 3-kinase catalytic subunit alpha isoform (Homo sapiens), P42336 [C420R]; conditions: Compound concentration 1000.0 nM
Sequence of Phosphatidylinositol 4,5-bisphosphate 3-kinase catalytic subunit alpha isoform (Homo sapiens), P42336 [C420R] (P42336 whole entry C420R, canonical isoform): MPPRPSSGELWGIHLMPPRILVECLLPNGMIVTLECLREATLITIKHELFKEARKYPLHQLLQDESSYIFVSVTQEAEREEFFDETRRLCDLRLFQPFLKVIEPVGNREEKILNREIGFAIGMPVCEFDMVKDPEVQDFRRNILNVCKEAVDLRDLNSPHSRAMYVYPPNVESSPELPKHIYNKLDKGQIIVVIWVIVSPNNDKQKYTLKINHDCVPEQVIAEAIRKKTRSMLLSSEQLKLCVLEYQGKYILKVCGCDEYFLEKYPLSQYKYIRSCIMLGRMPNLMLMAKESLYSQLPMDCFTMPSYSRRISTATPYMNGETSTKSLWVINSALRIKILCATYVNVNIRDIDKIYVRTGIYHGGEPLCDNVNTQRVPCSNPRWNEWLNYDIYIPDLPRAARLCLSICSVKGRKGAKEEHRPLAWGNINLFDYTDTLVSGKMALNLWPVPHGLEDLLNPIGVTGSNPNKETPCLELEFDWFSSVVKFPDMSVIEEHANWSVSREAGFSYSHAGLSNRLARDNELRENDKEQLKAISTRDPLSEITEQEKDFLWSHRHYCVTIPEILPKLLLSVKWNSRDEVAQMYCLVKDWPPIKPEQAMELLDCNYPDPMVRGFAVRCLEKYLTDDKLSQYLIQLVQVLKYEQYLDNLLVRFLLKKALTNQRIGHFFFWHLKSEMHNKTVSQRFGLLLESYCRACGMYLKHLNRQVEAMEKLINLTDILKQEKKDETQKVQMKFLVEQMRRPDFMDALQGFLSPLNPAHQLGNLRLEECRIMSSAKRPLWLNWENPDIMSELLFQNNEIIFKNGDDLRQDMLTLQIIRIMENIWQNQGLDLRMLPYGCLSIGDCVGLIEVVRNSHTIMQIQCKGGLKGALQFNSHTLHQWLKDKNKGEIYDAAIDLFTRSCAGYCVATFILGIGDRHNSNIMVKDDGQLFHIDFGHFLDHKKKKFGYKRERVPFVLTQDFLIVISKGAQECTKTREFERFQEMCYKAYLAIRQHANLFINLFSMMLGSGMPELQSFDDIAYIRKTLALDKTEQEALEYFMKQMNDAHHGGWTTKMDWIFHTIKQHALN

[44] = test system: Tyrosine-protein kinase ABL1 (Homo sapiens), P00519 [M351T]; conditions: Compound concentration 1000.0 nM
[45] = biological target: Ribosomal protein S6 kinase beta-1 (Homo sapiens) (UniProt P23443); conditions: Compound concentration 1000.0 nM

Sequence of Cyclin-dependent kinase 14 (Homo sapiens) (O94921 whole entry): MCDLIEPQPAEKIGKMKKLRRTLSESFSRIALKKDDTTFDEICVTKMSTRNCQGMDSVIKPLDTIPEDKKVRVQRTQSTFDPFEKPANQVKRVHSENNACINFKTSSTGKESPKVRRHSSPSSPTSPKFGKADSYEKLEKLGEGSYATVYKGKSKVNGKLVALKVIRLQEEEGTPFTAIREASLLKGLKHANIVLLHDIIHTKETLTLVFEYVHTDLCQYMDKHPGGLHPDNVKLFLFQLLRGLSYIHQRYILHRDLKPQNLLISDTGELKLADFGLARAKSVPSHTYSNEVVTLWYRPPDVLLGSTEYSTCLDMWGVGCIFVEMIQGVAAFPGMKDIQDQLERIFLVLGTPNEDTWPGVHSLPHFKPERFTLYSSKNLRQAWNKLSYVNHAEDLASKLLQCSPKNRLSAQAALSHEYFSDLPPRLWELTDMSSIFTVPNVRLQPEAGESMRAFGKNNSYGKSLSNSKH
Sequence of Protein kinase C theta type (Homo sapiens) (Q04759 whole entry, looked up): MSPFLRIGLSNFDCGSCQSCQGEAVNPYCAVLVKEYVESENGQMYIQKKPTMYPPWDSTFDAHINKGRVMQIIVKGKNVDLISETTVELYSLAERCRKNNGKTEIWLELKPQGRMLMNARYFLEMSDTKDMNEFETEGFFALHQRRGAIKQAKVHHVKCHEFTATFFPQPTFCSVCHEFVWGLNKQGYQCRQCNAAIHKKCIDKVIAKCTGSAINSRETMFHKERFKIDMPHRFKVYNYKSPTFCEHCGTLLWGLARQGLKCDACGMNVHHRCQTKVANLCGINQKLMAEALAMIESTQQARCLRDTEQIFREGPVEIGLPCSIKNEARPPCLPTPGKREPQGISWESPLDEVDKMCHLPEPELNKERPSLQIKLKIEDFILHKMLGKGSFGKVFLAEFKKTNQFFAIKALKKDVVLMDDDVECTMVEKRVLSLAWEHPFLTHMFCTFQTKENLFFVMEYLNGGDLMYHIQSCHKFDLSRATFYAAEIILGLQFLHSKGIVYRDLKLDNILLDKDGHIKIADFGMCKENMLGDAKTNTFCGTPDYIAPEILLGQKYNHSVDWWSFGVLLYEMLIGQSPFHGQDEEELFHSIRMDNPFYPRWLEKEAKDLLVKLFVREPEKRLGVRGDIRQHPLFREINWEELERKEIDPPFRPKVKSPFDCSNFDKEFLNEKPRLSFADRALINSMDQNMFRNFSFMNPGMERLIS

CN([C@@H]1CCc2c(CC(=O)O)c3cc(S(C)(=O)=O)ccc3n2C1)S(=O)(=O)c1ccc(F)cc1
inactive: residual activity [1] 100% | residual activity [2] 100% | residual activity [3] 78% | residual activity [4] 90% | residual activity [5] 100% | residual activity [6] 100% | residual activity [7] 100% | residual activity [8] 90% | residual activity [9] 73% | residual activity [10] 100% | residual activity [11] 75% | residual activity [12] 68% | residual activity [13] 100% | residual activity [14] 85% | residual activity [15] 97% | residual activity [16] 100% | residual activity [17] 88% | residual activity [18] 100% | residual activity [19] 100% | residual activity [20] 100% | residual activity [21] 100% | residual activity [22] 100% | residual activity [23] 71% | residual activity [24] 100% | residual activity [25] 92% | residual activity [26] 100% | residual activity [27] 93% | inhibition [28] -2.96% | residual activity [29] 100% | residual activity [30] 98% | residual activity [31] 100% | residual activity [32] 100% | residual activity [33] 100% | residual activity [34] 78% | residual activity [35] 92% | residual activity [36] 92% | residual activity [37] 100% | residual activity [38] 82% | residual activity [39] 99% | residual activity [40] 93% | residual activity [41] 86% | residual activity [42] 92% | residual activity [43] 98% | residual activity [44] 86% | residual activity [45] 100%

CN([C@@H]1CCc2c(CC(=O)O)c3ccccc3n2C1)S(=O)(=O)c1ccc(F)cc1 [MK-7246]
inactive: residual activity [1] 100% | residual activity [2] 100% | residual activity [3] 83% | residual activity [4] 100% | residual activity [5] 100% | residual activity [6] 100% | residual activity [7] 100% | residual activity [8] 100% | residual activity [9] 73% | residual activity [10] 100% | residual activity [11] 85% | residual activity [12] 71% | residual activity [13] 100% | residual activity [14] 100% | residual activity [15] 98% | residual activity [16] 100% | residual activity [17] 100% | residual activity [18] 100% | residual activity [19] 100% | residual activity [20] 100% | residual activity [21] 100% | residual activity [22] 100% | residual activity [23] 99% | residual activity [24] 100% | residual activity [25] 100% | residual activity [26] 100% | residual activity [27] 100% | inhibition [28] 12.3% | residual activity [29] 99% | residual activity [30] 100% | residual activity [31] 100% | residual activity [32] 100% | residual activity [33] 88% | residual activity [34] 100% | residual activity [35] 100% | residual activity [36] 95% | residual activity [37] 100% | residual activity [38] 100% | residual activity [39] 100% | residual activity [40] 100% | residual activity [41] 95% | residual activity [42] 100% | residual activity [43] 100% | residual activity [44] 100% | residual activity [45] 100%

From ChEMBL document CHEMBL4507290 (2021)
